“Also recorded” adds a separate entry of the source. Like-named read-outs stand apart in the source and are kept apart here.
How the values were obtained:
[1] = iron precipitation assay (removal of radioactive 55Fe2+ from buffer); assay type: physicochemical; conditions: compound 10 μM, 15 min
Experimental: Fig. 4 Chemical evidence of divalent metal complexation by hDMT1 inhibitors. (a and b) Isothermal titration calorimetry of pyrazole 13 (0.4 mM) with Cd^2+ (5 mM) in aqueous buffer pH 7.4 and pH 5.5, 25 °C. (c) Calcein quenching assay in aqueous buffer pH 5.5 (2 μM Fe^2+, 10 μM ligand, 1 μM calcein). Fe^2+ (2 μM), ascorbic acid (200 μM) and compounds (20 μM) were incubated for 5 min before the addition of calcein (1 μM) in Krebs buffer at pH 5.5. Fluorescence was measured after 5 min incubation. (d and e) Removal of radioactive ^55Fe^2+ from buffers upon incubation with ligands and centrifugation. ^55Fe^2+ (1 μM) precipitation upon interaction with the indicated compounds (10 μM). ^55Fe^2+ and the indicated compounds were incubated for 15 min, then, an aliquot of the solution supernatant was taken for determination of the remaining ^55Fe^2+. Data was normalized to the values obtained for the Fe^2+ + DMSO (0.1%) solution and represented as mean ± SD (N = 15; 2 independent experiments). Statistical differences were assessed using T-test or Mann–Whitney U test (Fe^2++ DMSO vs. each compound); p > 0.05 = ns; p < 0.05 = *; p < 0.001 = ***. […]
Iron precipitation assay. Polypropylene tubes containing uptake solution (140 mM NaCl, 2.5 mM KCl, 1 mM CaCl2, 1 mM MgCl2, 1.2 mM K2HPO4, 10 mM glucose, 5 mM HEPES, 5 mM MES, pH 7.4) supplemented with 1 µM Ferrous iron (Fe2+), 100 µM Ascorbic Acid, radiolabelled 55Fe2+ (0.5 µCi/mL) and 10 µM of the different compounds under study were incubated for 15 minutes at RT. Then, 10 µL aliquots from each tube were transferred in quadruplicate to a clear bottom, white -well, poly-D-lysine coated 96-well plate (Corning), and 55Fe2+ content was determined by scintillation counting as above described. […]
Statistics. Except when representative experiments are presented, results are shown as Mean ± Standard deviation (SD). Parametric distribution of the averaged values was assessed by […]

[2] = acid-base titration with NaOH; assay type: physicochemical; conditions: Milli-Q water with 10% DMSO, ~2 mM compound
Experimental: Fig. 6 (a) Acid–base titration of 3, 5, 13 and neutral and basic forms of 3, 5, 13. (20 μmol of compound in 10 mL (10% DMSO, ∼2 mM), 3 and 5 were acidified with HCl (50 μmol)). (b) Acid-base equilibria for inhibitors 3, 5 and 13 highlighting potentially metal chelating nitrogen atoms in red. (c) TMAP of our inhibitors combined with 169 pyrazolyl-pyrimidones and 1717 pyrazolyl-pyridines found in ChEMBL, color coded by source: cyan = pyrazolyl-pyridines from ChEMBL, blue = pyrazolyl-pyrimidones from ChEMBL, red = this work. Insert: Close-up view around pyrazolyl-pyrimidones color-coded by target class: red = transporter, cyan = enzyme, magenta = unclassified protein, grey = unclassified target. The interactive TMAP including further color-codes (target classes, QED, etc.) is accessible at:; http://tm.gdb.tools/dmt1_inhibitors/pyrimidones_pyridines/ […]
Milli-Q water, 1 mL DMSO and 0.5 mL HCl 0.1 M (Final concentration of 2 mM). Compound
13 (HCl salt, 200 µL, 0.1 M in DMSO) was dissolved in 0.8 mL DMSO and […] Milli-Q
water. Then, a solution of 0.1 M NaOH was added by steps of 2 µL with a Dosimat plus
(Metrohm, Zofingen, Switzerland) and pH was measured using a 692 pH/ion meter (Metrohm).

Structure (SMILES)	precipitation of Fe2+ ([1]; pH 7.4, 55Fe2+ 1 μM)	pKa ([2]; read-out: pKa1)	pKa ([2]; read-out: pKa2)	precipitation of Fe2+ ([1]; pH 5.5, 55Fe2+ 1 μM)
c1ccc(-c2ccccn2)nc1 [bipyridine]	had no effect	–	–	–
Cc1cc(O)nc(-n2nc(C)cc2C)n1 [Compound 5]	had no effect	3.6	6.5	–
Cc1cc(=O)[nH]c(-n2nc3c(c2C)CCCC3)n1 [Compound 13]	induced significant precipitation	3.3	7	–
N=C(N)SCc1cccc2c1oc1c(CSC(=N)N)cccc12 [Compound 1, reference compound]	had no effect	–	–	–
Cc1nn(-c2ccccn2)c(O)c1C(=O)Nc1cccc(C(F)(F)F)c1 [Compound 3, reference compound]	induced significant precipitation	3.3	6.7	only observed precipitation with the literature inhibitor 3; also recorded: high precipitation of iron
